pIC50: −log10 of the molar value. Converted amounts (≈) assume the structure as drawn. Where two headings read alike, the source gives them in different places.

Experimental findings from patent publication US5278187A, “Pharmaceutical compositions” (British Technology Group Ltd., priority 1985, dated 1994) are described below.

One data set is described as follows: Water solubility. It counts as physicochemical. The source says: By modification of the nature of the ester groups it is possible to alter the water solubility, lipophilicity and rate of conversion to the active cytotoxic molecules (I). […] Similarly, increased lipophilicity may be obtained in these prodrugs by the introduction of, for example, hydrocarbon groupings such as isobutyl or benzyl and this is reflected by the relatively high Rf values in a 50% v/v chloroform/ethanol/SiO2 thin layer chromatography system as recorded in the Examples given hereinafter. An increased lipophilicity favours better absorption and changes in tissue distribution such as greater penetration of the central nervous system. The more lipophilic products are also the most attractive candidates for the percutaneous treatment of psoriasis. Further, depending upon whether R3 is an electron-withdrawing group, for example benzyl, propargyl or carbethoxymethyl, or an electron-repelling group, for example isobutyl, hydroxyethyl or methoxyethyl, the rate of conversion of the compound (II) to the corresponding compound (I) can be speeded up or slowed down. Thus, by providing some control over the water solubility, lipophilicity and rate of generation of the active species, the prodrug compounds of the present invention provide the ability to modify the tissue distribution and pharmacodynamics of the dioxopiperazine drugs with consequential therapeutic benefit to the patient.

Another data set is described as follows: Absorption by mouth. Format: in vivo. The conditions noted are these: oral; in words.
Data set [1] can be described thus: Incubation under physiological conditions: formation of (I) from the 14C-labelled dimethyl ester and hydrolysis of the diimide (HPLC). It counts as physicochemical. The note with it: pH 7.2, 37° C. On the procedure:
(B) The rate of formation of the active antitumor agent (I) having R1 […] R2 =H from the corresponding ^14 C-labelled dimethyl ester (II) (R1 =R2 =H, R3 =CH3) following incubation under physiologically conditions, i.e. at 37° C. and pH and 7.2 in normal (0.15M) phosphate buffered saline [Practical Immunology, Hudson and hay (editors), Blackwell Scientific Publications, Second Edition, 1980, page 336] was studied. Sample of the incubation mixture were fractionated at different time intervals using HPLC with a reverse phase ODS column and an aqueous methanol gradient elution system.

Data set [2] deals with human mammary epithelial tumor cells (MCF7). Description: Cytotoxic effect on MCF7 cells, colony formation in culture. It counts as cell-based. The conditions noted are these: dose required to reduce by 50% the number of colonies, 37° C., 12-14 days, read-out: ID50 MCF7. On the procedure:
(§1) (A) The cytotoxic effects of a variety of compounds of formula (II) on human adenocarcinoma cells of the colon (LOVO) and human mammary epithelial tumor cells (MCF7) grown in culture were studied. A range of doses of the drugs was added on day one to replicate cultures of several hundred cells each, which were then incubated at 37° C. for 12-14 days. The cultures were then fixed and stained and the numbers of colonies per dish counted. The results obtained are shown in Table 1, the individual compounds being identified by the groups R1, R2 and R3 present therein, the last mentioned compound being the compound of formula (I) having R1 =H and R2 =CH3 which is used as a control. The results are expressed in terms of the ID50 which is the dose required to reduce by 50% the number of colonies growing up in the drug-treated cultures compared with untreated controls.

The subject of data set [3] is human adenocarcinoma cells of the colon (LOVO). Description: Cytotoxic effect on LOVO cells, colony formation in culture. Format: cell-based. The conditions noted are these: dose required to reduce by 50% the number of colonies, 37° C., 12-14 days, read-out: ID50 LOVO. On the procedure:
as §1

The mark [4] stands for this setting: esters corresponding to the diimide (I) in which R1 =R2 =H, read-out: water solubilities.

Regarding `O=C1CN(CCN2CC(=O)NC(=O)C2)CC(=O)N1` [diimide (I) R1=R2=H, 1,2-bis-(3,5-dioxopiperazin-1-yl)ethane, reference compound], the solubility in “Water solubility” (20° C., pH 7.2, read-out: water solubility) was about 0.1 mg/mL (≈ 0.393 mM). Further, in the data set “Absorption by mouth”, the absorption by mouth entry is “not being well absorbed by mouth”. Besides, the half-life in data set [1] (normal (0.15M) phosphate buffered saline, read-out: half life (hydrolysis to an inactive form) (converted)) is about 720 min.
As for `CC(CN1CC(=O)NC(=O)C1)N1CC(=O)NC(=O)C1` (stereo not drawn) [R1=CH3, R2=H, cyclic imide, reference compound], the pIC50 in data set [2] was 4.77; in data set [3], 4.74.
With `CC(CN(CC(N)=O)CC(=O)OCc1ccccc1[N+](=O)[O-])N(CC(N)=O)CC(=O)OCc1ccccc1[N+](=O)[O-]` (racemic) [R1=CH3, R2=H, R3=o-NO2 --CH2 C6 H5, dl-NN'-Di-o-nitrobenzyloxycarbonylmethyl)-NN'-diaminocarbonylmethyl-1,2-diaminopropane], the results for the pIC50 in data set [2] and in data set [3] were 4.80 and 4.96, respectively.
In the case of `CC(CN(CC(N)=O)CC(=O)OCc1ccc([N+](=O)[O-])cc1)N(CC(N)=O)CC(=O)OCc1ccc([N+](=O)[O-])cc1` (racemic) [R1=CH3, R2=H, R3=p-NO2 --CH2 C6 H5, dl-NN'-Di-p-nitrobenzyloxycarbonylmethyl-NN'-diaminocarbonylmethyl-1,2-diaminopropane], the values for the pIC50 in data set [2] and in data set [3] were 4.68 and 4.85, respectively.
`COC(=O)CN(CCN(CC(N)=O)CC(=O)OC)CC(N)=O` [R1=H, R2=H, R3=CH3, NN'-Dimethoxycarbonylmethyl-NN'-diaminocarbonylmethyl-1,2-diaminoethane]: the results for the pIC50 in data set [2] and in data set [3] were 4.41 and 4.55, respectively. In addition, in “Water solubility” (setting [4]), the solubility is over 20 mg/mL. In data set [1] (0.15M phosphate buffered saline, the Figure, in words), the “formation of the active cytotoxic species (I) by cyclisation of the bis-ester” value was “leads to a sustained concentration of the active cytotoxic species”.
Turning to `CCCCOCCOC(=O)CN(CCN(CC(N)=O)CC(=O)OCCOCCCC)CC(N)=O` [R1=H, R2=H, R3=CH2 CH2 O(CH2)3 CH3, NN'-Di-(2-n-butoxyethoxy)carbonylmethyl-NN'-diaminocarbonylmethyl-1,2-diaminoethane], the pIC50 in data set [2] is 4.44; in data set [3], 4.33.
Taken in the same sequence, the figures for `CC(CN(CC(N)=O)CC(=O)OCc1ccccc1)N(CC(N)=O)CC(=O)OCc1ccccc1` (racemic) [R1=CH3, R2=H, R3=CH2 C6 H5, dl-NN'-Dibenzyloxycarbonylmethyl-NN'-diaminocarbonylmethyl-1,2-diaminopropane] were 4.66 and 4.77.
Consider `NC(=O)CN(CCN(CC(N)=O)CC(=O)OCCO)CC(=O)OCCO` [R1=H, R2=H, R3=CH2 CH2 OH, NN'-Di-(2-hydroxyethoxy)carbonylmethyl-NN'-diaminocarbonylmethyl-1,2-diaminoethane], for which the solubility in the data set “Water solubility” (setting [4]) is over 20 mg/mL.
For the molecule `NC(=O)CN(CCN(CC(N)=O)CC(=O)OCC(=O)O)CC(=O)OCC(=O)O` [R1=H, R2=H, R3=CH2 CO2 H, NN'-Di-(carboxymethyloxycarbonylmethyl)-NN'-diaminocarbonylmethyl-1,2-diamonoethane], the pIC50 in data set [2] was 4.34; in data set [3], 4.17.
Taken in the same sequence, the figures for `C[C@H]([C@H](C)N(CC(N)=O)CC(=O)OCC(=O)O)N(CC(N)=O)CC(=O)OCC(=O)O` [R1=CH3, R2=CH3, R3=CH2 CO2 H, meso-NN'-Di-(carboxymethyloxycarbonylmethyl)-NN'-diaminocarbonylmethyl-2,3-diaminobutane] were 5.96 and 6.70.
In the same order, the values of `CC(C)COC(=O)CN(CCN(CC(N)=O)CC(=O)OCC(C)C)CC(N)=O` [R1=H, R2=H, R3=CH2 CH(CH3)2, NN'-Di-isobutoxycarbonylmethyl-NN'-diaminocarbonylmethyl-1,2-diaminoethane] are 3.92 and 3.99.
